Data: patent publication US11542266B1, “Substituted piperidines as BTK inhibitors” (HAISCO PHARMACEUTICALS PTE. LTD., priority 2019, dated 2023)

What was measured:
[1] = tested on: Mino cells; test: Inhibition of cell proliferation, Mino cells (Cell Viability Assay, 72 h); type: cell-based, human; conditions: Homo sapiens
In short: (§1)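 RPMI1640 + 10% FBS cultures seeded at 20000/well (SU-DHL-4) or 5000/well (Mino, SU-DHL-6), exposed to compound dilutions in triplicate for 72 h at 37 °C, 5% CO2, DMSO vehicle control. Viability read by luminescent reagent; IC50 from dose-response and Max inhi. % = (1 − T72 treated/T72 vehicle)×100 at top concentration.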

[2] = tested on: SU-DHL-4 cells; test: Inhibition of cell proliferation, SU-DHL-4 cells (Cell Viability Assay, 72 h); type: cell-based, human; conditions: Homo sapiens
In short: as §1

[3] = tested on: SU-DHL-6 cells; test: Inhibition of cell proliferation, SU-DHL-6 cells (Cell Viability Assay, 72 h); type: cell-based; conditions: Homo sapiens
Experimental: SU-DHL-4, Mino, and SU-DHL-6 cells, in the culture medium of RPMI1640+10% FBS, were cultured in an incubator at 37° C. under 5% CO2. Cells were plated in a 96-well plate. Specifically, SU-DHL-4 cells were at 20000/well, Mino and SU-DHL-6 cells were at 5000/well, with 90 μL/well. 10 μL of the compounds at different concentrations were added to each well. There were 3 replicate wells for each concentration, and the last column, added with DMSO, was used as a vehicle control group. The cultures were continued for 72 hours at 37° C. under 5% CO2. After 72 hours, 100 μL of detection reagent (Cell Viability Assay, Promega, G7573) was added to each well, and the cultures were uniformly mixed for 2 minutes, and incubated at room temperature for 10 minutes. The fluorescence signal value was measured with a microplate reader (PHERAstar FSX). The IC50 value of the compound on cell proliferation inhibition was calculated using Origin 9.2 software, and the inhibition rate at the highest concentration of the compound (Max inhi. %) was calculated according to formula (1). Max inhi. %=(1-T72 administration/T72 vehicle)×100 Formula (1).

[4] = tested on: OCI-LY10 cells; test: Inhibition of cell proliferation, OCI-LY10 cells (Cell Viability Assay, 72 h); type: cell-based; conditions: Homo sapiens
Experimental: (§2) OCI-LY10 and TMD-8 cells, in the culture medium of RPMI1640+10% FBS, were cultured in an incubator at 37° C. under 5% CO2. Cells were plated in a 96-well plate. Specifically, OCI-LY10 cells were at 10000/well, and TMD-8 cells were at 8000/well, with 90 μL/well. These cells were cultured at 37° C. under 5% CO2 overnight. On the next day, 10 μL of the compounds at different concentrations were added to each well. There were 3 replicate wells for each concentration, and the last column, added with DMSO, was used as a vehicle control group. The cultures were continued for 72 hours at 37° C. under 5% CO2. After 72 hours, 50 μL of detection reagent (Cell Viability Assay, Promega, G7573) was added to each well, and the cultures were uniformly mixed for 2 minutes, and incubated at room temperature for 10 minutes. The fluorescence signal value was measured with an Envision2104 plate reader (PerkinElmer). The inhibition rate was calculated using formula (2), wherein RLUcompound was the readout of the drug treated group, RLUcontrol was the average value of the vehicle control group, and RLUblank was the average value of the cell-free wells. The IC50 value was calculated using GraphPad Prism software. IR (%)=(1−(RLUcompound-RLUblank)/(RLUcontrol-RLUblank))*100% formula (2)

[5] = tested on: TMD-8 cells; test: Inhibition of cell proliferation, TMD-8 cells (Cell Viability Assay, 72 h); type: cell-based; conditions: Homo sapiens, TMD8
Experimental: as §2

[6] = Pharmacokinetic experiment in rats (i.g. vehicle DMSO/Solutol/PEG-400/SBE-β-CD); type: in vivo; conditions: Sprague-Dawley (SD), rat, plasma, po, male SD rats; for bioavailability: i.g. 20 mg/kg (DMSO/Solutol/PEG-400/SBE-β-CD) vs i.v. 5 mg/kg; for AUC(0-t): i.g. 20 mg/kg, vehicle 5% DMSO + 5% Solutol + 30% PEG-400 + 60% (20%SBE-β-CD)
Experimental: (§3) Objective: In this experiment, a single dose of each test compound was administered to SD rats intravenously and intragastrically, the concentrations of the test compound in plasma of rats were measured, and the pharmacokinetic characteristics and bioavailability of the test compound in rats were evaluated.
Experimental animals: Male SD rats, 200-250 g, 6-8 weeks old, 6 rats/compound. The experimental animals were purchased from CHENGDU DOSSY EXPERIMENTAL ANIMALS CO., LTD.
Experimental method: On the day of the experiment, 6 SD rats were randomly grouped according to their body weight. The animals were fasted with water available for 12 to 14 hours one day before the administration of a test compound, and were fed 4 hours after the administration.
Sampling: Before and after the administration, 0.1 mL of blood was taken from the orbit of the rats under isoflurane anesthesia, and placed in an EDTAK2 centrifuge tube. Centrifugation was carried out at 5000 rpm at 4° C. for 10 min and the plasma was collected.
Time points for plasma collection in G1 group: 0, 5 min, 15 min, 30 min, 1 h, 2 h, 4 h, 6 h, 8 h, and 24 h.
Time points for plasma collection in G2 group: 0, 15 min, 30 min, 1 h, 2 h, 4 h, 6 h, 8 h, and 24 h.
(§4) Before analysis and detection, all samples were stored at −80° C. The samples were analyzed quantitatively by LC-MS/MS.

[7] = target: BTK protein (Mus musculus (Mouse), UniProt P35991); test: Detection of BTK protein degradation in spleen of mice; type: in vivo; conditions: po, 72 h, female ICR mice, 3 consecutive days of intragastric administration, read-out: DD50 value of compounds on BTK protein degradation in spleen of mice
Experimental: Female ICR mice, 6-8 weeks old, were purchased from BEIJING VITAL RIVER LABORATORY ANIMAL TECHNOLOGY CO., LTD, and the experiment was started after 3 days of adaptation. After 3 consecutive days of intragastric administration of different doses of the compound, the spleen of mice was taken, the spleen cells were collected, and RIPA lysis buffer (Beyotime, Cat. P0013B) was added. The cells were lysed on ice for 15 minutes, and centrifuged at 12000 rpm at 4° C. for 10 minutes. The protein sample of the supernatant was collected, and the protein was quantified by using the BCA kit (Beyotime, Cat. P0009), and then the protein was diluted to 0.25 mg/mL. The expressions of BTK (CST, Cat. 8547S) and the internal reference β-actin (CST, Cat. 3700S) were detected using a fully automated western blot quantitative analyzer (Proteinsimple). The expression level of BTK relative to the internal reference was calculated using Compass software, and the DD50 value was calculated using Origen9.2 software according to formula (4). Specifically, the BTKadministration denoted the expression level of BTK in administration groups at different doses, and the BTKvehicle denoted the expression level of BTK in the vehicle control group. BTK %=BTKadministration/BTKvehicle×100 formula (4)

[8] = Pharmacokinetic experiment in rats (i.g. vehicle 0.5% MC); type: in vivo; conditions: Sprague-Dawley (SD), rat, plasma, po, male SD rats; for AUC(0-t): i.g. 20 mg/kg, vehicle 0.5% MC, read-out: AUC0-t
In short: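 Male SD rats (200–250 g, 6–8 weeks, n=6 per compound) were dosed once i.v. or intragastrically after a 12–14 h fast and fed 4 h post-dose. Orbital blood was drawn into EDTA-K2 tubes at 0–24 h (from 5 min i.v., from 15 min oral). Plasma was quantified by LC-MS/MS for PK parameters and bioavailability.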

[9] = Pharmacokinetic experiment in mice; type: in vivo; conditions: mouse, plasma, male ICR mice
Experimental: as §3, with “ICR mice” for “SD rats”, “mice” for “rats”
Experimental animals: Male ICR mice, 20-25 g, 6-8 weeks old, 24 mice/compound. The experimental animals were purchased from CHENGDU DOSSY EXPERIMENTAL ANIMALS CO., LTD.
Experimental method: On the day of the experiment, 24 ICR mice were randomly grouped according to their body weight. The animals were fasted with water available for 12 to 14 hours one day before the administration of a test compound, and were fed 4 hours after the administration.
Sampling: Before and after the administration, 0.06 ml of blood was taken from the orbit of the mice under isoflurane anesthesia, and placed in an EDTAK2 centrifuge tube. Centrifugation was carried out at 5000 rpm at 4° C. for 10 min and the plasma was collected.
Time points for plasma collection in G1 group: 0, 5 min, 15 min, 30 min, 1 h, 2 h, 4 h, 6 h, 8 h, and 24 h;
Time points for plasma collection in G2 group: 0, 15 min, 30 min, 1 h, 2 h, 4 h, 6 h, 8 h, and 24 h;
as §4

Chain of BTK protein (P35991 whole entry): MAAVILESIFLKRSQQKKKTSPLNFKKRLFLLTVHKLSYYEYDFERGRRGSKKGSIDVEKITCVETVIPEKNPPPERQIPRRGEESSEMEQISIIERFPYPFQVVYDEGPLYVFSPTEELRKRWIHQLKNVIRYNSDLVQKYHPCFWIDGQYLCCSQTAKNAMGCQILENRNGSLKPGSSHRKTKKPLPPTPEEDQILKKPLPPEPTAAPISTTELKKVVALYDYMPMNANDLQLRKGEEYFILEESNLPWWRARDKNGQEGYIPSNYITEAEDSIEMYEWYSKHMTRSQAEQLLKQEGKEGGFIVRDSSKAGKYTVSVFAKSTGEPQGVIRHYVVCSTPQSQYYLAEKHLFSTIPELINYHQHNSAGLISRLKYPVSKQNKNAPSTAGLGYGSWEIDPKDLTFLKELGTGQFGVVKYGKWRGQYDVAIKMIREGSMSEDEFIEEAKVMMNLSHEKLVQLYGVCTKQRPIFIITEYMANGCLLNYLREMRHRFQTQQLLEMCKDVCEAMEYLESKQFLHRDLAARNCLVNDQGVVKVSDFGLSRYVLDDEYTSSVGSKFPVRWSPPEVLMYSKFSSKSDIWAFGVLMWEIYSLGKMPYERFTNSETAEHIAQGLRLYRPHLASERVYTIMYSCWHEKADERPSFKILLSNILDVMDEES

| SMILES | IC50 [1] | IC50 [2] | IC50 [3] | IC50 [4] | IC50 [5] | bioavailability [6] | AUC(0-t) [6] | ED50 [7] | bioavailability ([8]; i.g. 20 mg/kg (0.5% MC) vs i.v. 5 mg/kg) | AUC(0-t) [8] | bioavailability ([9]; oral, i.g. 10 mg/kg vs i.v. 5 mg/kg) | AUC(0-t) ([9]; po, i.g. 10 mg/kg, vehicle 0.5% MC) |
| --- | --- | --- | --- | --- | --- | --- | --- | --- | --- | --- | --- | --- |
| Nc1ncnc2c1c(-c1ccc(Oc3ccccc3)cc1)nn2[C@@H]1CCN(C2CCN(C3CN(c4ccc5c(c4)C(=O)N(C4CCC(=O)NC4=O)C5=O)C3)CC2)C[C@H]1F (stereo partly drawn) [Compound 40, 5-(3-((3R,4R)-4-(4-amino-3-(4-phenoxyphenyl)-1H-pyrazolo[3,4-d]pyrimidin-1-yl)-3-fluoro-[1,4′-bipiperidin]-1′-yl)azetidin-1-yl)-2-(2,6-dioxopiperidin-3-yl)isoindoline-1,3-dione] | 7.3 nM | 74 nM | 54 nM | 3 nM | 12 nM | 17.4 ± 4% | 5420 ± 1260 ng·h/mL | 2.1 mg/kg | – | – | – | – |
| Nc1ncnc2c1c(-c1ccc(Oc3ccccc3)cc1)nn2C1CCN(C2CN(C3CN(c4ccc5c(c4)C(=O)N([C@H]4CCC(=O)NC4=O)C5=O)C3)C2)CC1 [Compound 17-b, 5-[3-[3-[4-[4-amino-3-(4-phenoxyphenyl)pyrazolo[3,4-d]pyrimidin-1-yl]-1-piperidyl]azetidin-1-yl]azetidin-1-yl]-2-[(3S)-2,6-dioxo-3-piperidyl]isoindoline-1,3-dione] | 7.2 nM | 460 nM | 662 nM | – | – | – | – | 2.2 mg/kg | – | – | – | – |
| Nc1ncnc2c1c(-c1ccc(Oc3ccccc3)cc1)nn2[C@@H]1CCN(C2CCN(C3CN(c4ccc5c(c4)C(=O)N(C4CCC(=O)NC4=O)C5=O)C3)CC2)C[C@@H]1F (stereo partly drawn) [Compound 45, 5-(3-((3S,4R)-4-(4-amino-3-(4-phenoxyphenyl)-1H-pyrazolo[3,4-d]pyrimidin-1-yl)-3-fluoro-[1,4′-bipiperidin]-1′-yl)azetidin-1-yl)-2-(2,6-dioxopiperidin-3-yl)isoindoline-1,3-dione] | 9.6 nM | 110 nM | 125 nM | 3 nM | 16 nM | 19.7 ± 8.5% | 3440 ± 1490 ng·h/mL | 1.4 mg/kg | – | – | – | – |
| Nc1ncnc2c1c(-c1ccc(Oc3ccccc3)cc1)nn2C1CCN(C2CN(C3CN(c4ccc5c(c4)C(=O)N(C4CCC(=O)NC4=O)C5=O)C3)C2)CC1 (stereo not shown) [Compound 17, 5-[3-[3-[4-[4-amino-3-(4-phenoxyphenyl)pyrazolo[3,4-d]pyrimidin-1-yl]-1-piperidyl]azetidin-1-yl]azetidin-1-yl]-2-(2,6-dioxo-3-piperidyl)isoindoline-1,3-dione] | 20 nM | 367 nM | 744 nM | 5 nM | 22 nM | – | – | 3.8 mg/kg | 6.57 ± 0.77% | 2340 ± 274 ng·h/mL | 10.8% | 2430 ng·h/mL |
| Nc1ncnc2c1c(-c1ccc(Oc3ccccc3)cc1)nn2[C@H]1CCN(C2CCN(C3CN(c4ccc5c(c4)C(=O)N(C4CCC(=O)NC4=O)C5=O)C3)CC2)C[C@H]1F (stereo partly drawn) [Compound 42, 5-(3-((3R,4S)-4-(4-amino-3-(4-phenoxyphenyl)-1H-pyrazolo[3,4-d]pyrimidin-1-yl)-3-fluoro-[1,4′-bipiperidin]-1′-yl)azetidin-1-yl)-2-(2,6-dioxopiperidin-3-yl)isoindoline-1,3-dione] | 15 nM | 382 nM | 177 nM | 3 nM | 16 nM | 9.14 ± 2.5% | 1200 ± 327 ng·h/mL | 1.9 mg/kg | – | – | – | – |
| Nc1ncnc2c1c(-c1ccc(Oc3ccccc3)cc1)nn2C1CCN(C2CCN(C3CN(c4ccc5c(c4)C(=O)N(C4CCC(=O)NC4=O)C5=O)C3)CC2F)CC1 (stereo not drawn) [Compound 18-1, cis-5-(3-(4-(4-amino-3-(4-phenoxyphenyl)-1H-pyrazolo[3,4-d]pyrimidin-1-yl)-3′-fluoro-[1,4′-bipiperidin]-1′-yl)azetidin-1-yl)-2-(2,6-dioxopiperidin-3-yl)isoindoline-1,3-dione] | 18 nM | 20 nM | 29 nM | 4 nM | 8 nM | – | – | 1.9 mg/kg | – | 218 ± 68 ng·h/mL | – | – |
| Nc1ncnc2c1c(-c1ccc(Oc3ccccc3)cc1)nn2C1CCN(C2CN(C3CN(c4ccc5c(c4)C(=O)N([C@@H]4CCC(=O)NC4=O)C5=O)C3)C2)CC1 [Compound 17-a, 5-[3-[3-[4-[4-amino-3-(4-phenoxyphenyl)pyrazolo[3,4-d]pyrimidin-1-yl]-1-piperidyl]azetidin-1-yl]azetidin-1-yl]-2-[(3R)-2,6-dioxo-3-piperidyl]isoindoline-1,3-dione] | 8 nM | 481 nM | 524 nM | – | – | – | – | 19.8 mg/kg | – | – | – | – |
